Test results reported in US8765777B2, “Compositions and methods of use for tyrosine kinase inhibitors to treat pathogenic infection” (priority 2008, dated 2014).
“Also recorded” adds a separate entry of the source.

Assays:
[1] = test system: Abl-tyrosine family kinases; settings: Shah et al. (2004) Science 305:399-401; cited from earlier work
[2] = test system: VV (strain WR); type: cell-based, Vaccinia virus
[3] = test system: EPEC (strain 2389/69); assay: EPEC actin pedestal formation on 3T3 cells; type: cell-based, enteropathogenic E. coli
[4] = test system: VV extracellular enveloped virus (EEV); type: cell-based, Vaccinia virus
[5] = test system: VV; type: cell-based, Vaccinia virus
[6] = test system: HIV-1 Bal; assay: p24 production of macrophages infected with HIV-1 Bal; type: cell-based
[7] = test system: Mycobacterium tuberculosis (TB); type: cell-based
[8] = test system: VV-WR
[9] = test system: VV; settings: 100 mg/kg/day via subcutaneous osmotic pump, 10^4 pfu VV intraperitoneally, four days post infection; FIG. 4
[10] = Tolerability of the drugs in uninfected mice
[11] = test system: GFP-VV; type: cell-based, Vaccinia virus
[12] = up to 100 mg/kg/day i.p., 10 day period

## Cc1nc(Nc2ncc(C(=O)Nc3c(C)cccc3Cl)s2)cc(N2CCN(CCO)CC2)n1 [BMS-354825, N-(2-chloro-6-methylphenyl)-2-(6-(4-(2-hydroxyethyl)piperazin-1-yl)-2-methylpryimidin-4-ylamino)thiazole-5-carboxamide]
[1]
  potency relative to STI-571: two-log increased potency

## CC(C)(C)n1nc(-c2ccc(Cl)cc2)c2c(N)ncnc21 [PP2]
[2]
  concentrations that blocked actin tails: ≥ 25 µM
[3]; Abl−/−/Arg−/− cells
  pedestals in Abl−/−/Arg−/− cells: not
[3]; concentrations up to 100 μM, the highest tested
  pedestal formation: without effect

## Cc1ccc(NC(=O)c2ccc(CN3CCN(C)CC3)cc2)cc1Nc1nccc(-c2cccnc2)n1 [STI-571, 4-[(4-Methyl-1-piperazinyl)methyl]-N-[4-methyl-3-[[4-(3-pyridinyl)-2-pyrimidinyl]amino]-phenyl]benzamide methanesulfonate]
[2]
  actin tail formation: did not block actin tail formation
  average number of actin tails per cell: ~3 per cell
  cells having no actin tails: 30%
  number of actin tails per cell: no detectable effects
  reduction of average number of actin tails per cell: 16 fold
  viral replication (extranuclear DAPI staining) and transit of GFP-labeled virions to the cell periphery: no effect
[2]; methanesulfonate
  VV actin motility, actin tail formation or number: no discernable effect; also recorded: no difference in actin tail formation or number was evident
[4]
  formation of comets apposed to plaques: blocked the formation
  reduction in PFU of supernatant on BSC-40 cells: ~2 fold
[5]
  amount of virus produced (viral replication): nearly equivalent amounts of virus
[3]; 25 μM
  EPEC pedestal formation: did not
[6]; Cells + HIV-1 Bal + drug 1 μM, HIV-1 Bal alone 322 +/− 28
  P24 day 7: 287 ± 31 pg/mL
[6]; Cells + HIV-1 Bal + drug 1 μM, HIV-1 Bal alone 956 +/− 34
  P24 day 14: 744 ± 27 pg/mL
[6]; Cells + HIV-1 Bal + drug 5 μM
  P24 day 7: 212 ± 44 pg/mL
  P24 day 14: 556 ± 28 pg/mL
[6]; Cells + HIV-1 Bal + drug 10 μM
  P24 day 7: 127 ± 22 pg/mL
  P24 day 14: 245 ± 31 pg/mL
[6]; Cells + drug 1 μM, no virus
  P24 day 7: <10 pg/mL
  P24 day 14: <10 pg/mL
[6]; Cells + drug 5 μM, no virus
  P24 day 7: <10 pg/mL
  P24 day 14: <10 pg/mL
[6]; Cells + drug 10 μM, no virus
  P24 day 7: <10 pg/mL
  P24 day 14: <10 pg/mL
[6]; dose dependent, 1-10 μM
  reduction of viral replication (p24 levels): up to 4 fold
[7]
  intercellular survival of M. tuberculosis: increases the intercellular survival
[8]
  plaque formation: did inhibit plaque formation
[9]
  reduction of viral load (copies of VV UDG gene per 250 ng DNA of ovary): 4-5 logs
[10]; 100 mg/kg/day, subcutaneously implanted osmotic pumps
  weight and other adverse effects in uninfected animals: no loss in weight or other adverse effects
[10]; intraperitoneal injection, up to 100 mg/kg/day in saline, up to 10 days
  tolerability: well tolerated
[10]; [12]
  pathology upon necropsy with drug alone: no overt pathology
  weight loss with drug alone: no indication of weight loss

## Cc1ccc(NC(=O)c2ccc(CN3CCN(Cc4ccccc4)CC3)cc2)cc1Nc1nccc(-c2cccnc2)n1 [STI-X]
[11]
  actin tail formation: failed to form actin tails
  percentage of cells containing DAPI-stained extranuclear viral replication factories: 4%
  replication centers (DAPI staining or α-Ptyr pAb) and actin motility: still evident; also recorded: no effect
  viral entry (GFP-labeled virions and EVP staining): little detectable effect on viral entry
[8]
  plaque formation: reduced
  tolerability by the cells in plaque assays: well tolerated
